Experimental data as given in US20190315823A1, “SMALL CATIONIC ANTI-BIOFILM AND IDR PEPTIDES” (priority 2013, published 2019).
Ends that are not written are not given here.

Key:
[1] = system: methicillin resistant Staphylococcus aureus (MRSA) biofilm; conditions: approximate peptide concentration […] (around 3 μg/ml); compared to untreated samples
In short: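 Static biofilm assay: 1/100 dilutions of overnight cultures grown in BM2 medium (pH 7, glucose, Casamino Acids) or Luria Broth with peptide added at time zero. After 22–46 h, adherent biofilm was stained with crystal violet and read at 595 nm. Some peptides were also tested on K. pneumoniae under flow in a Bioflux system.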

[2] = system: human peripheral blood mononuclear cells (MCP-1); test: SPOT-synthesized derivative screen: production of chemokine MCP-1; type: cell-based; conditions: Table 12, No LPS, human PBMC, peptide at ~18-24 μM; for MCP1: background subtracted 139 (HH2 derivatives), 170 (1018 derivatives), 242 (1002 and hybrid peptides) pg/ml
In short: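 PBMC from heparinized healthy-donor venous blood, Ficoll-separated, cultured at 0.75 to 1×10^6 cells/ml, 37 °C, 5% CO2, under the treatment regimens. MCP-1 in cell-free supernatants measured by capture ELISA.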

[3] = system: LPS-stimulated human peripheral blood mononuclear cells (IL1-β); type: cell-based; conditions: Table 12, cells stimulated with 10 ng/ml LPS; for IL1β Production: LPS alone 1313 (HH2 derivatives), 1927 (1018 derivatives), 2455 (1002 and hybrid peptides) pg/ml

| Substance | % Biofilm inhibition [1] | Fold increase in MCP1 cf. untreated cells [2] | MCP1 [2] | Fold change in IL1β relative to no peptide LPS stimulated cells [3] | IL1β Production [3] |
| --- | --- | --- | --- | --- | --- |
| HH2-K12: single substituted HH2 peptide (VQLRIRVAVIRK-NH2) | 67% | 15 | 2329 pg/mL | 0.92 | 1203 pg/mL |
| 1018-V6: single substituted 1018 peptide (VRLIVVVRIWRR-NH2) [Peptide 1018-V6] | 70% | 1.6 | 110 pg/mL | 0.17 | 226 pg/mL |
| 1002-W11: single substituted 1002 peptide (VQRWLIVWRIWK-NH2) [Peptide 1002-W11] | 37% | 0.9 | -36.2 pg/mL | 0.05 | 127 pg/mL |
| 1018-L12: single substituted 1018 peptide (VRLIVAVRIWRL-NH2) [Peptide 1018-L12] | 44% | 1.2 | 29 pg/mL | 0.17 | 220 pg/mL |
| 1002-V2: single substituted 1002 peptide (VVRWLIVWRIRK-NH2) [Peptide 1002-V2] | 72% | 22.5 | 5209.2 pg/mL | 0.05 | 127 pg/mL |
| 1002-V6: single substituted 1002 peptide (VQRWLVVWRIRK-NH2) [Peptide 1002-V6] | 71% | 1.5 | 113.5 pg/mL | 0.05 | 127 pg/mL |
| 1018-Q3: single substituted 1018 peptide (VRQIVAVRIWRR-NH2) [Peptide 1018-Q3] | 12% | 1.0 | -2 pg/mL | 1.03 | 1359 pg/mL |
| 1002-Q7: single substituted 1002 peptide (VQRWLIQWRIRK-NH2) [Peptide 1002-Q7] | 45% | 0.9 | -36.2 pg/mL | 0.06 | 138 pg/mL |
| 1002-L7: single substituted 1002 peptide (VQRWLILWRIRK-NH2) [Peptide 1002-L7] | 57% | 1.8 | 199.1 pg/mL | 0.05 | 127 pg/mL |
| 1018-A5: single substituted 1018 peptide (VRLIAAVRIWRR-NH2) [Peptide 1018-A5] | 54% | 1.3 | 57 pg/mL | 0.57 | 752 pg/mL |
| 1018-Q4: single substituted 1018 peptide (VRLQVAVRIWRR-NH2) [Peptide 1018-Q4] | 39% | 0.4 | -104 pg/mL | 0.35 | 458 pg/mL |
| HH2-A3: single substituted HH2 peptide (VQARIRVAVIRA-NH2) | 52% | 1.3 | 59 pg/mL | 1.44 | 1886 pg/mL |
| 1002-W6: single substituted 1002 peptide (VQRWLWVWRIRK-NH2) [Peptide 1002-W6] | 53% | 0.9 | -36.2 pg/mL | 0.05 | 127 pg/mL |
